“And” between values parts separate entries of the source, which are not always exact repeats. Equal entries are not always repeated. Toxic doses and inconclusive results are not listed. Square brackets hold non-standard residues; d marks the D form. Peptide text beside a SMILES is read from it. ξ: configuration not given here. ξY = NC(Cc1ccc(O)cc1)C(=O)O
System: P388 leukemia ip, CD2F1 mice, survival T/C
Experiment: NCI In Vivo Anticancer Drug Screen. Data for tumor model P388 Leukemia (intraperitoneal) in CD2F1 (CDF1) mice
Conditions: endpoint: median survival time, higher = longer survival
How it was run: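 Mice carrying the transplanted tumor received test compound or vehicle. Survival was recorded in each group, and the value is the treated-group measurement divided by that of the vehicle-treated control group.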

[1] = dose: 12.5 mg/kg/injection, schedule: Q01DX005 (ip), vehicle: saline with Tween-80
[2] = dose: 25.0 mg/kg/injection, schedule: Q01DX005 (ip), vehicle: saline with Tween-80
[3] = dose: 50.0 mg/kg/injection, schedule: Q01DX005 (ip), vehicle: saline with Tween-80
[4] = dose: 100.0 mg/kg/injection, schedule: Q01DX005 (ip), vehicle: saline with Tween-80
[5] = dose: 200.0 mg/kg/injection, schedule: Q01DX005 (ip), vehicle: saline with Tween-80
[6] = dose: 100.0 mg/kg/injection, schedule: Q04DX003 (ip), vehicle: saline with Tween-80
[7] = dose: 200.0 mg/kg/injection, schedule: Q04DX003 (ip), vehicle: saline with Tween-80
[8] = dose: 400.0 mg/kg/injection, schedule: Q04DX003 (ip), vehicle: saline with Tween-80
[9] = dose: 50.0 mg/kg/injection, schedule: Q01DX009 (ip), vehicle: saline with Tween-80
[10] = dose: 25.0 mg/kg/injection, schedule: Q01DX009 (ip), vehicle: saline
[11] = dose: 50.0 mg/kg/injection, schedule: Q01DX009 (ip), vehicle: saline
[12] = dose: 100.0 mg/kg/injection, schedule: Q01DX009 (ip), vehicle: saline
[13] = dose: 200.0 mg/kg/injection, schedule: Q01DX009 (ip), vehicle: saline
[14] = dose: 30.0 mg/kg/injection, schedule: Q01DX005 (ip), vehicle: saline with Tween-80
[15] = dose: 60.0 mg/kg/injection, schedule: Q01DX005 (ip), vehicle: saline with Tween-80
[16] = dose: 120.0 mg/kg/injection, schedule: Q01DX005 (ip), vehicle: saline with Tween-80
[17] = dose: 50.0 mg/kg/injection, schedule: Q01DX009 (ip), vehicle: Klucel (hydroxypropylcellulose) (HPC)
[18] = dose: 100.0 mg/kg/injection, schedule: Q01DX009 (ip), vehicle: Klucel (hydroxypropylcellulose) (HPC)
[19] = dose: 200.0 mg/kg/injection, schedule: Q01DX009 (ip), vehicle: Klucel (hydroxypropylcellulose) (HPC)
[20] = dose: 240.0 mg/kg/injection, schedule: Q01DX005 (ip), vehicle: saline with Tween-80
[21] = dose: 12.5 mg/kg/injection, schedule: Q01DX009 (ip), vehicle: Klucel (hydroxypropylcellulose) (HPC)
[22] = dose: 25.0 mg/kg/injection, schedule: Q01DX009 (ip), vehicle: Klucel (hydroxypropylcellulose) (HPC)

## O=C(OCC(OC(=O)c1ccccc1)C(OC(=O)c1ccccc1)C(OC(=O)c1ccccc1)C(OC(=O)c1ccccc1)c1nn[nH]n1)c1ccccc1 (centres undefined)
[1]
  T/C: 94 % of control
[2]
  T/C: 86 % of control
[3]
  T/C: 90 % of control and 100 % of control
[4]
  T/C: 100 % of control
[5]
  T/C: 96 % of control

## O=C(NCCN1CCN2Cc3[nH]c4ccccc4c3CC2C1)c1ccc(Cl)cc1 (centres undefined)
dose: 60.0 mg/kg/injection, schedule: Q01DX005 (ip), vehicle: saline
  T/C: 102 % of control
dose: 120.0 mg/kg/injection, schedule: Q01DX005 (ip), vehicle: saline
  T/C: 97 % of control
dose: 240.0 mg/kg/injection, schedule: Q01DX005 (ip), vehicle: saline
  T/C: 90 % of control

## Oc1ccc2ccccc2c1-c1c(OC(c2ccccc2)c2ccccc2)ccc2ccccc12
[6]
  T/C: 102 % of control
[7]
  T/C: 94 % of control
[8]
  T/C: 102 % of control

## [Cl][Sn]([Cl])([S]c1nccc2ccccc12)[S]c1nccc2ccccc12
[9]
  T/C: 102 % of control
dose: 100.0 mg/kg/injection, schedule: Q01DX009 (ip), vehicle: saline with Tween-80
  T/C: 93 % of control
dose: 200.0 mg/kg/injection, schedule: Q01DX009 (ip), vehicle: saline with Tween-80
  T/C: 93 % of control

## S=C(Nc1ccc(Cl)c(Cl)c1)SC1CCCCC1
[10]
  T/C: 107 % of control
[11]
  T/C: 91 % of control
dose: 50.0 mg/kg/injection, schedule: Q01DX009 (ip), vehicle: suspension in saline
  T/C: 105 % of control
[12]
  T/C: 100 % of control
dose: 100.0 mg/kg/injection, schedule: Q01DX009 (ip), vehicle: suspension in saline
  T/C: 115 % of control
[13]
  T/C: 123 % of control
dose: 200.0 mg/kg/injection, schedule: Q01DX009 (ip), vehicle: suspension in saline
  T/C: 120 % of control

## COC(=O)c1cc(-c2ccc3ccccc3c2)[nH]c(=O)c1C#N
[14]
  T/C: 100 % of control
[15]
  T/C: 91 % of control and 92 % of control
[16]
  T/C: 96 % of control

## CC/C=C(\CC)C(=O)O
[11]
  T/C: 90 % of control
[12]
  T/C: 100 % of control
[13]
  T/C: 102 % of control

## Cc1ccc(S(=O)(=O)/N=S(\C)CC(C)Cl)cc1 (centres undefined)
[17]
  T/C: 100 % of control
[18]
  T/C: 105 % of control
[19]
  T/C: 105 % of control

## O=c1c2[nH]c3ccccc3sc=2c(=O)n1-c1ccc(Cl)cc1
[15]
  T/C: 103 % of control
[16]
  T/C: 98 % of control
[20]
  T/C: 94 % of control

## O=C(Nc1ncnc2nc[nH]c12)NC1CCCCC1
dose: 0.75 mg/kg/injection, schedule: Q01DX005 (ip), vehicle: saline
  T/C: 106 % of control
dose: 1.5 mg/kg/injection, schedule: Q01DX005 (ip), vehicle: saline
  T/C: 98 % of control
dose: 3.0 mg/kg/injection, schedule: Q01DX005 (ip), vehicle: saline
  T/C: 95 % of control
dose: 6.25 mg/kg/injection, schedule: Q01DX005 (ip), vehicle: saline with Tween-80
  T/C: 89 % of control
[1]
  T/C: 98 % of control
[2]
  T/C: 86 % of control
[3]
  T/C: 109 % of control

## NCC(=O)NC(Cc1ccc(O)cc1)C(=O)O (centres undefined) (H-Gly-[ξY]-OH)
[12]
  T/C: 113 % of control
dose: 100.0 mg/kg/injection, schedule: Q04DX003 (ip), vehicle: saline
  T/C: 98 % of control
[13]
  T/C: 101 % of control
dose: 200.0 mg/kg/injection, schedule: Q04DX003 (ip), vehicle: saline
  T/C: 105 % of control
dose: 400.0 mg/kg/injection, schedule: Q01DX009 (ip), vehicle: saline
  T/C: 105 % of control
dose: 400.0 mg/kg/injection, schedule: Q04DX003 (ip), vehicle: saline
  T/C: 104 % of control

## C#CCOC(=O)C12CCC(C)(C)CC1C1=CCC3C4(C)CCC(O)C(C)(CO)C4CCC3(C)C1(C)CC2 (centres undefined)
[1]
  T/C: 101 % of control
[2]
  T/C: 94 % of control

## Cc1ccc(C(=O)c2ccc[n+](C)c2)cc1
dose: 50.0 mg/kg/injection, schedule: Q01DX005 (ip), vehicle: saline
  T/C: 100 % of control
dose: 100.0 mg/kg/injection, schedule: Q01DX005 (ip), vehicle: saline
  T/C: 101 % of control

## Nc1cccc2cccnc12 (tested in a mixture with another compound)
dose: 6.25 mg/kg/injection, schedule: Q01DX009 (ip), vehicle: saline with Tween-80
  T/C: 97 % of control
dose: 12.5 mg/kg/injection, schedule: Q01DX009 (ip), vehicle: saline with Tween-80
  T/C: 103 % of control
dose: 25.0 mg/kg/injection, schedule: Q01DX009 (ip), vehicle: saline with Tween-80
  T/C: 106 % of control
[9]
  T/C: 104 % of control

## COc1ccc(C#N)cc1OC
dose: 6.25 mg/kg/injection, schedule: Q01DX009 (ip), vehicle: saline
  T/C: 99 % of control
dose: 12.5 mg/kg/injection, schedule: Q01DX009 (ip), vehicle: saline
  T/C: 108 % of control
[10]
  T/C: 92 % of control
[11]
  T/C: 92 % of control

## Cc1[nH]c(C)c2c(=O)ccsc12
[15]
  T/C: 90 % of control
[16]
  T/C: 99 % of control

## Oc1ccc(/C=N/NC(=S)NN2CCOCC2)nc1
dose: 3.12 mg/kg/injection, schedule: Q01DX009 (ip), vehicle: Klucel (hydroxypropylcellulose) (HPC)
  T/C: 110 % of control
dose: 6.25 mg/kg/injection, schedule: Q01DX009 (ip), vehicle: Klucel (hydroxypropylcellulose) (HPC)
  T/C: 109 % of control
[21]
  T/C: 104 % of control
[22]
  T/C: 111 % of control

## c1ncn(Sn2cncn2)n1
dose: 8.75 mg/kg/injection, schedule: Q01DX005 (ip), vehicle: Klucel (hydroxypropylcellulose) (HPC)
  T/C: 100 % of control
dose: 17.5 mg/kg/injection, schedule: Q01DX005 (ip), vehicle: Klucel (hydroxypropylcellulose) (HPC)
  T/C: 101 % of control
dose: 35.0 mg/kg/injection, schedule: Q01DX005 (ip), vehicle: Klucel (hydroxypropylcellulose) (HPC)
  T/C: 104 % of control

## O=C1NC(=O)C23CC=CCC12CCCC3 (centres undefined)
[17]
  T/C: 101 % of control
[18]
  T/C: 100 % of control
[19]
  T/C: 100 % of control

## BrC1C2CCC3OC3CCC12 (centres undefined)
[6]
  T/C: 101 % of control
[7]
  T/C: 92 % of control
[8]
  T/C: 97 % of control

## O=C(/C=C/c1cccs1)c1ccc(Nc2ccnc3cc(Cl)ccc23)cc1
dose: 100.0 mg/kg/injection, schedule: Q01DX001 (ip), vehicle: saline with Tween-80
  T/C: 94 % of control
dose: 200.0 mg/kg/injection, schedule: Q01DX001 (ip), vehicle: saline with Tween-80
  T/C: 98 % of control
dose: 400.0 mg/kg/injection, schedule: Q01DX001 (ip), vehicle: saline with Tween-80
  T/C: 94 % of control

## O=c1ccc2cc3ccoc3c(OCCOCCOCCOCCOc3c4occc4cc4ccc(=O)oc34)c2o1
[3]
  T/C: 92 % of control
[4]
  T/C: 91 % of control
[5]
  T/C: 91 % of control

## O=NN(CCS(=O)CCCl)C(=O)NC1CCCCC1 (centres undefined)
dose: 3.13 mg/kg/injection, schedule: Q01DX009 (ip), vehicle: water
  T/C: 102 % of control
dose: 6.25 mg/kg/injection, schedule: Q01DX009 (ip), vehicle: water
  T/C: 110 % of control
dose: 12.5 mg/kg/injection, schedule: Q01DX009 (ip), vehicle: water
  T/C: 111 % of control
dose: 25.0 mg/kg/injection, schedule: Q01DX009 (ip), vehicle: water
  T/C: 124 % of control
dose: 100.0 mg/kg/injection, schedule: Q01DX009 (ip), vehicle: water
  T/C: 159 % of control

## CCN(CC)CCC(=O)c1cccc2ccccc12
[2]
  T/C: 100 % of control
[3]
  T/C: 106 % of control
[4]
  T/C: 102 % of control

## C/C=C(/C)C(=O)OC/C(=C/C)C(=O)OC1C=CC(C)(C)C(C=O)=C1C (centres undefined)
[21]
  T/C: 93 % of control
[22]
  T/C: 93 % of control
[18]
  T/C: 93 % of control

## CCN(CC)C(=O)NCCCCCCNC(=O)N(CC)CC
dose: 15.0 mg/kg/injection, schedule: Q01DX005 (ip), vehicle: saline with Tween-80
  T/C: 103 % of control
[14]
  T/C: 98 % of control and 104 % of control
[15]
  T/C: 98 % of control and 100 % of control and 94 % of control
[16]
  T/C: 87 % of control

## O=C1COC(C(O)(c2ccccc2)c2ccccc2)C(=O)N1 (centres undefined)
[15]
  T/C: 107 % of control
[16]
  T/C: 102 % of control
[20]
  T/C: 98 % of control

## S=c1n(-c2ccc(Cl)cc2)c2nc3ccccc3nc(/c2=N\Nc2ccccc2)n1-c1ccccn1
[3]
  T/C: 91 % of control
[4]
  T/C: 100 % of control
